Where “and” joins values, the source holds several entries; their conditions need not be identical. Identical values can stand only once. Like-named read-outs stand apart in the source and are kept apart here.
What was measured:
human ABCB1 = biological target: T1, human ABCB1 (Homo sapiens, UniProt P08183); assay: Transepithelial transport, MDCK-II cells transduced with hABCB1; type: in vitro ADME; conditions: MDCK-MDR1, pH 7.4, MDCK-II hABCB1, 5 µM, no inhibitor, read-out: efflux transport ratio r
T1 construct: expressed in transfected cells; host or cells: MDCK-II cells stably transduced with hABCB1 cDNA (made in the authors' institute)
Excerpt: Polarized Madin-Darby Canine Kidney (MDCK-II) cells (ECACC 00062107) stably transduced with either human (h) ABCB1, hABCG2 or mouse (m) Abcg2 cDNA were generated in our institute between 1995–2005. The proper identity and functionality, such as highly characteristic growth and drug transporter properties, including inhibitor sensitivity, were regularly checked in these epithelial cells. Mycoplasma routinely tested negative in these cells. The passage number was 10–15 when used in the transport experiments.
Transepithelial transport experiments were performed as previously described with 12-well plates (Transwell 3414, Corning Inc., Kennebunk, ME, USA) containing microporous polycarbonate membrane filters (3.0 µm pore size, 12 mm diameter). […]
After pre-incubation with 5 µM zosuquidar (ABCB1 inhibitor) and/or 5 µM Ko143 (ABCG2/Abcg2 inhibitor) in both compartments (when appropriate) for 1 h, the transport phase was initiated (t = 0) by replacing the medium in apical and basolateral compartments with fresh DMEM with 10% FBS and the appropriate inhibitor(s), and repotrectinib at 5 µM in the donor compartment. […] The active transport ratio r, calculated by dividing the amount of apically directed drug transport by basolaterally directed drug translocation after 8 h, was used to assess active transport of repotrectinib.

[1] = 8-h oral plasma pharmacokinetics and tissue distribution, female wild-type, Cyp3a−/− and Cyp3aXAV mice; type: in vivo; conditions: 10 mg/kg oral; for Tmax: median (range); for Tmax / SIC (% of dose) / Fold change AUC0–8h / Fold change SIC (% of dose) / Fold increase Cbrain / Fold increase Cliver / Fold increase ratio (brain-to-plasma) / Fold increase ratio (liver-to-plasma) / Kp at 8 h / concentration at 8 h / half-life / Cmax / AUC(0-t): 8 h; for Fold change AUC0–8h / Fold change SIC (% of dose) / Fold increase Cbrain / Fold increase Cliver / Fold increase ratio (brain-to-plasma) / Fold increase ratio (liver-to-plasma): vs wild-type; for Kp at 8 h / concentration at 8 h / half-life / Cmax / AUC(0-t): female, po; for half-life: elimination half-life; for AUC(0-t): read-out: AUC0–8h
Excerpt: Mice with similar average ages (and body weights) were randomly allocated in experimental groups as far as possible. Mice were maintained in a temperature-controlled and specific pathogen-free environment with a 12-h light and 12-h dark cycle and they received a standard diet (Transbreed, SDS Diets, Technilab-BMI, Someren, The Netherlands) and acidified water ad libitum. […] Given the objective main readout (repotrectinib plasma and tissue concentrations as measured by LC-MS/MS), no blinding method was applied.
Repotrectinib was dissolved in dimethyl sulfoxide (DMSO) at a concentration of 50 mg/mL. This stock solution was first diluted 3-fold with ethanol/polysorbate 80 (1/1; v/v), followed by further dilution with a 10 mM hydrochloric acid solution, yielding a dosing solution of 1 mg/mL, freshly prepared on the day of experiment. Final concentrations of the solvents in the administration solution were: 2%, 2%, 2%, and 94% (all v/v) for DMSO, ethanol, polysorbate 80, and 10 mM hydrochloric acid solution, respectively.
To minimize variation in absorption upon oral administration, mice were fasted for 2–3 h before repotrectinib (10 mg/kg body weight) was administered by gavage into the stomach at 10 µL/g body weight, with a blunt-ended needle. Tail vein serial blood samples were collected at 0.125, 0.25, 0.5, 1, 2 and 4 h using heparinized capillary tubes (Sarstedt, Nümbrecht, Germany) for the 8-h experiments. For the 4- and 2-h experiments, blood samplings were performed from the tail vein with the same schedule, but terminated at 2 and 1 h, respectively. Eight, four, or two hours after oral administration, mice were deeply anesthetized with 2–3% isoflurane, followed by cardiac puncture to collect blood in Eppendorf tubes containing heparin as an anticoagulant. Brain, liver, spleen, kidney, lung, small intestine, and testis were rapidly collected after sacrificing the mice by cervical dislocation. The small intestinal contents (SIC) were separated from small intestinal tissue (SI), which was flushed and rinsed with cold saline to remove any residual feces. Brain, liver, spleen, kidney, lung, SI, SIC, and testis were homogenized with 1, 3, 1, 2, 1, 3, 2, and 1 mL of 2% BSA (w/v), respectively. Plasma fraction was isolated from blood by centrifugation at 9000× g for 6 min at 4 °C. All samples were stored at −30 °C until analysis.
A sensitive and specific liquid chromatography-tandem mass spectrometry method using protein precipitation pre-treatment was adopted to quantify the concentration of repotrectinib in DMEM medium, plasma samples and tissue homogenates.
A non-compartmental model using the PKSolver add-in program for Microsoft Excel was adopted to calculate the pharmacokinetic parameters of repotrectinib. Oral availability was assessed by the plasma area under the curve (AUC), calculated using repotrectinib plasma concentration-time curves with the linear trapezoidal rule without extrapolating the infinity. Statistical testing was performed in Graphpad Prism7 (Graphpad Software, La Jolla, CA, USA). All data are presented as geometric means ± SD. Heteroscedastic data were log-transformed before applying statistical analysis. When differences between two groups were compared, the two-sided unpaired Student’s t test was used. One-way analysis of variance (ANOVA) was applied when multiple groups were compared, and the Bonferroni post hoc correction was used to accommodate multiple testing. Differences were considered statistically significant when P < 0.05.

[2] = FVB, mouse, plasma, 10 mg/kg, female Cyp3aXAV mice
[3] = FVB, mouse, plasma, 10 mg/kg, female Cyp3a−/− mice
[4] = FVB, mouse, plasma, 10 mg/kg, female wild-type mice

T1 sequence (P08183 whole entry): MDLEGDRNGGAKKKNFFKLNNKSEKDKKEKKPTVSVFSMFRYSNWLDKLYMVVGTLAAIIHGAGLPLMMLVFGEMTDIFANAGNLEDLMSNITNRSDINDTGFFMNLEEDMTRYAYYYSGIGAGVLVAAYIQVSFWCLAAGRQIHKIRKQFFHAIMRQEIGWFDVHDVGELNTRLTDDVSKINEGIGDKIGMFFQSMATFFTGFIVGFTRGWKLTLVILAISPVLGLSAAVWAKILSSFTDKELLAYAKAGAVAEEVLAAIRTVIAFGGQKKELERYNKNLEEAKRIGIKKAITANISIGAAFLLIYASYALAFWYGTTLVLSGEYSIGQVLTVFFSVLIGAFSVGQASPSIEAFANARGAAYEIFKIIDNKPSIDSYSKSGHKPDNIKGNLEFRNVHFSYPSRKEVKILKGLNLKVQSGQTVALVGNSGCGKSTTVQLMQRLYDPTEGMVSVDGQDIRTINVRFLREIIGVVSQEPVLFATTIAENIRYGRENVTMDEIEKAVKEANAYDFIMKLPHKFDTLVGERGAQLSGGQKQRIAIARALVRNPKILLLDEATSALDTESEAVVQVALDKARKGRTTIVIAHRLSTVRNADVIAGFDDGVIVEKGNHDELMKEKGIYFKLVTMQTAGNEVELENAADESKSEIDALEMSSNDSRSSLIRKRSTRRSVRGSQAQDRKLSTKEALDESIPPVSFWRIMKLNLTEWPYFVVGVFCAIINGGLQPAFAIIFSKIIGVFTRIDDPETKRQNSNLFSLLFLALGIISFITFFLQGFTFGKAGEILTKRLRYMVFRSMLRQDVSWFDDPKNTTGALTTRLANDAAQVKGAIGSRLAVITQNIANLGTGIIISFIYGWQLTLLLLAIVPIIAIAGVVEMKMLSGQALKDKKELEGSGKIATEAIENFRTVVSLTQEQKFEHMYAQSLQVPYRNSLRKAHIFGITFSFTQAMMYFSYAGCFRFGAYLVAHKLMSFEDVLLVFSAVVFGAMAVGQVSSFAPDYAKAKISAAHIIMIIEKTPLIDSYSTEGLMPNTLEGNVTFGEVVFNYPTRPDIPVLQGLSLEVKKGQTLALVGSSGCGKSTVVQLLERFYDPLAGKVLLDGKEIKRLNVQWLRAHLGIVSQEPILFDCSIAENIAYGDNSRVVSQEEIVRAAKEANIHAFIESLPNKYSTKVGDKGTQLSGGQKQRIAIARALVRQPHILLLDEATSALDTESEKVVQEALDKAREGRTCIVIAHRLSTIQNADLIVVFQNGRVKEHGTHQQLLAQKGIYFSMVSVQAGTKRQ

C[C@H]1CNC(=O)c2cnn3ccc(nc23)N[C@H](C)c2cc(F)ccc2O1 [repotrectinib]
efflux ratio at 8 h, 5 µM (human ABCB1): 13.5 | Tmax ([1]; FVB, mouse, plasma, female wild-type mice, read-out: Tmax): 0.5 h | plasma AUC0–8h, fold decrease ([1]; female Cyp3aXAV mice compared to Cyp3a−/− mice): 2.0 fold | SIC (% of dose) ([1]; female Cyp3aXAV mice): 1.68 ± 0.63 % of dose | Fold change AUC0–8h ([1]; female Cyp3aXAV mice): 1.16 | Fold change SIC (% of dose) ([1]; female Cyp3aXAV mice): 0.81 | Fold increase Cbrain ([1]; female Cyp3aXAV mice): 1.57 | Fold increase Cliver ([1]; female Cyp3aXAV mice): 1.13 | Fold increase ratio (brain-to-plasma) ([1]; female Cyp3aXAV mice): 1.54 | Fold increase ratio (liver-to-plasma) ([1]; female Cyp3aXAV mice): 1.32 | SIC (% of dose) ([1]; female Cyp3a−/− mice): 5.11 ± 2.83 % of dose | Fold change SIC (% of dose) ([1]; female Cyp3a−/− mice): 2.46 | Fold increase Cbrain ([1]; female Cyp3a−/− mice): 4.16 | Fold increase Cliver ([1]; female Cyp3a−/− mice): 4.11 | Fold increase ratio (brain-to-plasma) ([1]; female Cyp3a−/− mice): 0.85 | Fold increase ratio (liver-to-plasma) ([1]; female Cyp3a−/− mice): 0.90 | Fold change AUC0–8h ([1]; female Cyp3a−/− mice, 10 mg/kg): 2.3 and 2.31 | SIC (% of dose) ([1]; female wild-type mice): 2.08 ± 1.35 % of dose | Fold change AUC0–8h ([1]; female wild-type mice): 1.00 | Fold change SIC (% of dose) ([1]; female wild-type mice): 1.00 | Fold increase Cbrain ([1]; female wild-type mice): 1.00 | Fold increase Cliver ([1]; female wild-type mice): 1.00 | Fold increase ratio (brain-to-plasma) ([1]; female wild-type mice): 1.00 | Fold increase ratio (liver-to-plasma) ([1]; female wild-type mice): 1.00 | Kp at 8 h ([1]; Cyp3aXAV (>99% FVB background), mouse, brain/plasma, 10 mg/kg, female Cyp3aXAV mice, read-out: Brain-to-plasma ratio): 0.4 ± 0.09 | concentration at 8 h ([1]; Cyp3aXAV (>99% FVB background), mouse, liver, 10 mg/kg, female Cyp3aXAV mice, read-out: Cliver): 1380 ± 440 ng/mL | Kp at 8 h ([1]; Cyp3a−/− (>99% FVB background), mouse, brain/plasma, 10 mg/kg, female Cyp3a−/− mice, read-out: Brain-to-plasma ratio): 0.22 ± 0.08 | concentration at 8 h ([1]; Cyp3a−/− (>99% FVB background), mouse, liver, 10 mg/kg, female Cyp3a−/− mice, read-out: Cliver): 5020 ± 1920 ng/mL | concentration at 8 h ([1]; FVB, mouse, brain, 10 mg/kg, female Cyp3aXAV mice, read-out: Cbrain): 80.2 ± 35.3 ng/g | concentration at 8 h ([1]; FVB, mouse, brain, 10 mg/kg, female Cyp3a−/− mice, read-out: Cbrain): 213 ± 53.7 ng/g | concentration at 8 h ([1]; FVB, mouse, brain, 10 mg/kg, female wild-type mice, read-out: Cbrain): 51.2 ± 17.8 ng/g | Kp at 8 h ([1]; FVB, mouse, liver, 10 mg/kg, female Cyp3aXAV mice, read-out: Liver-to-plasma ratio): 7.1 ± 2.11 | Kp at 8 h ([1]; FVB, mouse, liver, 10 mg/kg, female Cyp3a−/− mice, read-out: Liver-to-plasma ratio): 4.81 ± 0.76 | Kp at 8 h ([1]; FVB, mouse, liver, 10 mg/kg, female wild-type mice, read-out: Liver-to-plasma ratio): 5.36 ± 0.54 | half-life [1, 2]: 1.6 ± 0.2 h | half-life [1, 3]: 2.5 ± 0.9 h | half-life [1, 4]: 1.6 ± 0.4 h | Cmax [1, 2]: 5560 ± 610 ng/mL | AUC(0-t) [1, 2]: 18900 ± 3650 ng·h/mL | Cmax [1, 3]: 8280 ± 930 ng/mL | AUC(0-t) [1, 3]: 37600 ± 2830 ng·h/mL | Cmax [1, 4]: 4800 ± 1780 ng/mL | AUC(0-t) [1, 4]: 16300 ± 6350 ng·h/mL | Kp at 8 h ([1]; wild-type (>99% FVB background), mouse, brain/plasma, 10 mg/kg, female wild-type mice, read-out: Brain-to-plasma ratio): 0.26 ± 0.12 | concentration at 8 h ([1]; wild-type (>99% FVB background), mouse, liver, 10 mg/kg, female wild-type mice, read-out: Cliver): 1220 ± 650 ng/mL | Tmax ([1]; female Cyp3aXAV mice): 0.5 (0.25–0.5) h | Tmax ([1]; female Cyp3a−/− mice): 0.5 (0.125–0.5) h

— paper PMC8619046, “ABCB1 and ABCG2 Control Brain Accumulation and Intestinal Disposition of the Novel ROS1/TRK/ALK Inhibitor Repotrectinib, While OATP1A/1B, ABCG2, and CYP3A Limit Its Oral Availability” (Pharmaceutics, 2021)
